This is an account of results in patent publication US20240336573A1, “COMPOUND FOR THE TREATMENT AND PROPHYLAXIS OF INFECTIOUS DISEASES” (Eberhard Karls Universität Tübingen Medizinische Fakultät, priority 2021, published 2024).

The target of one experiment is SurA (Escherichia coli, UniProt P0ABZ6). In words: Luciferase-based SurA activity assay (primary assay, in-house). The experiment is classed as biochemical, E. coli. Conditions: n/d: no signal detected; for Primary Assay ICmax: QHL-10 derivatives, dose response up to 125 μM; for Primary Assay Amplitude: amplitude of signal. An excerpt: The biological function of SurA is to bind and to keep outer membrane proteins that have reached the periplasm in an unfolded but folding-competent state. The inventors' assay is based on this interaction and uses firefly Luciferase (fLuc) as a non-native substrate. […] This is exploited in the assay (FIG. 3). The loss of tertiary structure of fLuc leads to the exposure of binding sites for SurA. It is known that SurA binds selectively to a special group of substrates. These substrates have in common the specific patterns of hydrophobic amino acids that are highly enriched in the beta strands of integral outer membrane proteins. These motifs are present in OMPs of all Gram-negative bacteria and in fLuc as well. Upon mild heat treatment of fLuc and its subsequent partial unfolding, fLuc is accepted as a substrate by SurA. Of note, these intermediates served as reporter substrates to determine the activity of a […] folding chaperone. […] This interaction remains stable upon temperature reduction. Next, the temperature of the assay is reduced to room temperature and luciferase activity is subsequently measured by addition of Luciferin and ATP. In conditions without SurA, fLuc will refold into its active conformation resulting in a luminescence signal.
In short, the Luciferase based SurA activity assay was performed in SurA Activity Assay Buffer (40 mM HEPES pH 7.4, 20 mM MgSO4, 0.5 g/I BSA). SurA aliquots were thawn at RT, activated by mild heat treatment and cooled down to RT for 10 min. […] Solution A containing 10 mM ATP as well as 0.3 mM Luciferin (Promega Beetle Luciferin, Potassium Salt) in water was prepared. Luciferase working solution was prepared by diluting 1 ml Luciferase working stock (100 nM) with 9 ml assay buffer. 33 μl of the protein solution were added to every 2nd row of a well of a 384-well PS, white, flat bottom plate. […] Subsequently, 2 μl of compound in DMSO were added in quadruplicates (4 wells each of protein solution and buffer controls). These compound solutions could contain either various compounds or different dilutions of the same compound allowing screening inhibitor activity in a dose dependent manner. After compound addition, plates were incubated 15 min at RT. After this incubation, 5 μl of Luciferase working solution were added to each well. Next, the plates were incubated 25 min at 38° C. to partially unfold the Luciferase. Subsequently, the assay plate was cooled for 5 min at 4° C. followed by 10 min incubation at RT prior to luminescence measurement. Luminescence was measured in a TECAN infinite M200 pro plate reader for each well individually after injection of 10 μl Solution A.

The subject of another experiment is E. coli BW25113. Description: Sensitizer MIC assay (vancomycin). The class given is cell-based. Conditions: 100 μM compound, wildtype strain. How it is done: (§1) To test for the sensitizer properties of the compounds, the inventors then performed a sensitizer MIC assay. To this end, E. coli BW25113, E. coli JW2496-3, and E. coli ATCC 25922 inocula were prepared as described above. Each well of a 96-well plate was prefilled with a fixed compound concentration of 100 μM and a dilution series of Vancomycin ranging from […]. A sensitizing effect was defined as reduction of the MIC value of Vancomycin of the respective test strain.

For another experiment, the system named is E. coli ATCC 25922. Description: Sensitizer MIC assay (vancomycin). The settings on record: vancomycin; 100 μM compound; type strain. The experiment is classed as cell-based. How it is done:
as §1

Another experiment has as its system E. coli JW2496-3. Description: Sensitizer MIC assay (vancomycin). The class given is cell-based. Conditions: 100 μM compound, more susceptible strain. As for the experimental part:
as §1

Experiment [1] relates to E. coli BW25113, E. coli JW2496-3, E. coli ATCC 25922. Description: Minimal inhibitory concentration assay (bactericidal/bacteriostatic assessment). The class given is cell-based. The settings on record: dilution series 100-1.7 μM. An excerpt: The intended effect of a SurA inhibitor should be the induction of a disturbance of the outer membrane composition resulting in an increased susceptibility to antibiotic treatment. Of note, Vancomycin is typically not used to treat infections with Gram-negative bacteria, because it is excluded by the OM and not efficient at concentrations that could be achieved in patients. However, at appropriate dosing in vitro it can be used to detect outer membrane defects. For determining a potential sensitizing effect of Vancomycin treatment, the inventors first tested whether the compounds at hand were bactericidal per se. Therefore, the inventors performed a minimal inhibitory concentration (MIC) assay. To this end, 5 ml overnight cultures of E. coli BW25113 (Keio-Collection reference strain), E. coli JW2496-3 (Keio-Collection single gene knockout for bamB, which suffers from decreased outer membrane integrity) and E. coli ATCC 25922 (a reference strain recommended for antibiotic susceptibility testing) were grown in Mueller Hinton Broth, Cation adjusted (MHB-II). The next day, the OD was adjusted to obtain 1*10^8 CFU/ml using fresh MHB-II. Next, this bacterial solution was diluted 1:100 into 20 ml fresh MHB-II. 50 μl of this bacteria solution were then transferred into each well of a 96-well plate prefilled with 50 μl MHB-II supplemented with the desired compounds. The test plates for the bactericidal assessment contained dilution series of the compounds from 100-1.7 μM. Plates were sealed with a gas permeable membrane and incubated o/n at 37° C. in a humid chamber without shaking. After o/n incubation, bacterial growth was quantified by measuring the optical density at 600 nm wavelength in a multiplate reader. Compounds showing no growth inhibition at 100 μM were considered non-bactericidal. Of note, the bactericidal effect of Vancomycin was assessed similarly for each test strain using Vancomycin concentrations ranging from […]. This was done to identify a Vancomycin concentration at which the strains just managed to survive.

Structures are written as SMILES.

Sequence of SurA (P0ABZ6 21-428): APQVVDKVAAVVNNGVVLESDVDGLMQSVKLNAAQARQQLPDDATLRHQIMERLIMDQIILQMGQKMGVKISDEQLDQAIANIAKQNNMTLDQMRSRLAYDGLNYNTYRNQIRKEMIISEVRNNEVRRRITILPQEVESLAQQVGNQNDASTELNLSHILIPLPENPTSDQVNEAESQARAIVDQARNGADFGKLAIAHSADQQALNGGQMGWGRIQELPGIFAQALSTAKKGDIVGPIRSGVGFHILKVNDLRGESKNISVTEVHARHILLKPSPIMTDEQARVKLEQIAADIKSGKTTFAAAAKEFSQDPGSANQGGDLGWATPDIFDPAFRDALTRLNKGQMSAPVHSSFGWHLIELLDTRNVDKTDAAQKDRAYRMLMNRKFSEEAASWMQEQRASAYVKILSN

Take `NC(=O)c1nc(-c2cccc(N)c2)[nH]c1NC(=O)c1ccc(-c2ccccc2)cc1` [Compound 3b, 5-([1,1′-biphenyl]-4-carboxamido)-2-(3-aminophenyl)-1H-imidazole-4-carboxamide]: on SurA, the “Primary Assay ICmax” value turned out to be 8 µM and the “Primary Assay Amplitude” value is listed as “high”. For the same molecule, the “Sensitizer MIC Assay (log2-fold reduction of MIC in presence of compound) BW25113” value in the experiment on E. coli BW25113 came to 1 log2-fold. Besides, the “Sensitizer MIC Assay (log2-fold reduction of MIC in presence of compound) ATCC25922” value with E. coli ATCC 25922 turned out to be 1 log2-fold. Also, the “Sensitizer MIC Assay (log2-fold reduction of MIC in presence of compound) JW2496-3” value with E. coli JW2496-3 is reported as 1-3 log2-fold. In addition, the “Bacteriostatic MIC Assay Result” value in experiment [1] was “non-bacteriostatic”.
As for `NC(=O)c1nc(-c2ccccc2O)[nH]c1NC(=O)c1ccc(-c2ccccc2)cc1` [Compound 3c, 5-([1,1′-biphenyl]-4-carboxamido)-2-(2-hydroxyphenyl)-1H-imidazole-4-carboxamide], at SurA, the “Primary Assay ICmax” value came out at 8 µM and the “Primary Assay Amplitude” value is “high”. The “Sensitizer MIC Assay (log2-fold reduction of MIC in presence of compound) BW25113” value in the experiment on E. coli BW25113 worked out at 0 log2-fold. For the same molecule, the “Sensitizer MIC Assay (log2-fold reduction of MIC in presence of compound) ATCC25922” value in the experiment with E. coli ATCC 25922 is given as 1-2 log2-fold. For the same molecule, the “Sensitizer MIC Assay (log2-fold reduction of MIC in presence of compound) JW2496-3” value in the experiment with E. coli JW2496-3 is 1-2 log2-fold. Besides, the “Bacteriostatic MIC Assay Result” value in experiment [1] was “non-bacteriostatic”.
Regarding `NC(=O)c1nc(-c2ccc(F)c(N)c2)[nH]c1NC(=O)c1ccc(-c2ccccc2)cc1` [Compound 3d, 5-([1,1′-biphenyl]-4-carboxamido)-2-(3-amino-4-fluorophenyl)-1H-imidazole-4-carboxamide], at SurA, the “Primary Assay ICmax” value came to 16 µM and the “Primary Assay Amplitude” value is listed as “high”. For the same molecule, the “Sensitizer MIC Assay (log2-fold reduction of MIC in presence of compound) BW25113” value with E. coli BW25113 is on record as 0 log2-fold. In addition, in the experiment on E. coli ATCC 25922, the “Sensitizer MIC Assay (log2-fold reduction of MIC in presence of compound) ATCC25922” value is 0 log2-fold. Besides, the “Sensitizer MIC Assay (log2-fold reduction of MIC in presence of compound) JW2496-3” value in the experiment on E. coli JW2496-3 worked out at 0 log2-fold. The “Bacteriostatic MIC Assay Result” value in experiment [1] is recorded as “non-bacteriostatic”.
As to `CCOc1ccc2ccccc2c1C(=O)Nc1[nH]c(-c2cccc(N)c2)nc1C(N)=O` [Compound 3e, 2-(3-aminophenyl)-5-(2-ethoxy-1-naphthamido)-1H-imidazole-4-carboxamide], on SurA, the “Primary Assay ICmax” value turned out to be 64 µM and the “Primary Assay Amplitude” value is reported as “low”. Also, the “Sensitizer MIC Assay (log2-fold reduction of MIC in presence of compound) BW25113” value in the experiment with E. coli BW25113 is listed as 0 log2-fold. The “Sensitizer MIC Assay (log2-fold reduction of MIC in presence of compound) ATCC25922” value in the experiment with E. coli ATCC 25922 turned out to be 0 log2-fold. Further, the “Sensitizer MIC Assay (log2-fold reduction of MIC in presence of compound) JW2496-3” value in the experiment on E. coli JW2496-3 turned out to be 0 log2-fold. For the same molecule, the “Bacteriostatic MIC Assay Result” value in experiment [1] was “non-bacteriostatic”.
As for `CCOc1ccc2ccccc2c1C(=O)Nc1[nH]c(-c2ccccc2O)nc1C(N)=O` [Compound 3f, 5-(2-ethoxy-1-naphthamido)-2-(2-hydroxyphenyl)-1H-imidazole-4-carboxamide], at SurA, the “Primary Assay ICmax” value worked out at 16 µM and the “Primary Assay Amplitude” value is “low”. In addition, the “Sensitizer MIC Assay (log2-fold reduction of MIC in presence of compound) BW25113” value with E. coli BW25113 was determined as 1 log2-fold. Also, in the experiment on E. coli ATCC 25922, the “Sensitizer MIC Assay (log2-fold reduction of MIC in presence of compound) ATCC25922” value is listed as 1 log2-fold. For the same molecule, the “Sensitizer MIC Assay (log2-fold reduction of MIC in presence of compound) JW2496-3” value with E. coli JW2496-3 turned out to be 2 log2-fold. In addition, the “Bacteriostatic MIC Assay Result” value in experiment [1] is “non-bacteriostatic”.
Consider `CCOc1ccc2ccccc2c1C(=O)Nc1[nH]c(-c2ccc(F)c(N)c2)nc1C(N)=O` [Compound 3g, 2-(3-amino-4-fluorophenyl)-5-(2-ethoxy-1-naphthamido)-1H-imidazole-4-carboxamide], for which, on SurA, the “Primary Assay ICmax” value stood at 64 µM and the “Primary Assay Amplitude” value was “low”. Also, the “Sensitizer MIC Assay (log2-fold reduction of MIC in presence of compound) BW25113” value with E. coli BW25113 is given as 0 log2-fold. For the same molecule, the “Sensitizer MIC Assay (log2-fold reduction of MIC in presence of compound) ATCC25922” value with E. coli ATCC 25922 turned out to be 0 log2-fold. Moreover, the “Sensitizer MIC Assay (log2-fold reduction of MIC in presence of compound) JW2496-3” value in the experiment with E. coli JW2496-3 is 0 log2-fold. For the same molecule, the “Bacteriostatic MIC Assay Result” value in experiment [1] is “non-bacteriostatic”.
